Experimental findings from patent US11548875B2, “Inhibitor compounds for male contraception” (University of Washington, priority 2018, dated 2023) are described below.

The target in one experiment is T1, ALDH1A2 (Homo sapiens, UniProt O94788).
T1 sequence (O94788 1-518): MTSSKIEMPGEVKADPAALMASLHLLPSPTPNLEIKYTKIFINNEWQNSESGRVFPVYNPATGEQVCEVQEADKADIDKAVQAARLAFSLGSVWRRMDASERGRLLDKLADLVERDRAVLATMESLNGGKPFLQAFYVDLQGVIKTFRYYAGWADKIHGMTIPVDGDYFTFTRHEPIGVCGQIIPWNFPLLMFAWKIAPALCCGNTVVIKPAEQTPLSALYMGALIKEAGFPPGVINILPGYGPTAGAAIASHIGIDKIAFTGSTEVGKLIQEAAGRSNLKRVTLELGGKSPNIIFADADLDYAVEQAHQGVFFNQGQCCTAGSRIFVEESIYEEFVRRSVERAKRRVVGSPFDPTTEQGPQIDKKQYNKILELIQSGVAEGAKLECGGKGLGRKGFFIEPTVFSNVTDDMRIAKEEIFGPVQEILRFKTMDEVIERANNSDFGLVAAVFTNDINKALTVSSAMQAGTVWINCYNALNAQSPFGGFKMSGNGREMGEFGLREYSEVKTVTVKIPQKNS
Put plainly: Inhibitor screening using purified enzymes: ALDH1A2 activity, retinoic acid production by HPLC (5 uM initial screen, then IC50). Format: biochemical. Also on record: histidine-tag (C); made in house; host or cells: bacterial expression (pET28 vector, IPTG induction). The settings on record: purified enzyme. An excerpt:
(§1) ALDHs were cloned into bacterial expression vector for in vitro enzyme assays and into mammalian expression vectors for cell-based enzyme assays. Human ALDH1A1 cDNA and human ALDH2 cDNA were purchased from OriGene (SC321535) and Open Biosystems (MHS4771-99611182), respectively. and human ALDH1A2 cDNA was cloned from human testis RNA using RT-PCR (Population Division of the Department of Economic and Social Affairs of the United Nations Secretariat. World Population prospects: the 2008 revision. Available at http://www.un.org/esa/population/ (Retrieved Sep. 30, 2011)). For bacterial expression, an open reading frame of ALDH1A1 and ALDH2 were subcloned into the pETite vector (Lucigen) with a 5′ histidine-tag and that of ALDH1A2 into a pET28 vector (Novagen) with a 3′ histidine-tag. Correct frame and sequences were verified through DNA sequencing (UW DNA sequencing facility). ALDHs were induced with 1 mM IPTG and purified using His.Bind resin (Novagen, San Diego, Calif.) and stored in a buffer containing 20 mM Hepes (pH 8), 150 mM KCl and 1 mM EDTA as previously described (Fierce, Y., de Morais Vieira, M., Piantedosi, R., Wyss, A., Blaner, W. S., and Paik, J. (2008) In vitro and in vivo characterization of retinoid synthesis from beta-carotene. Archives of biochemistry and biophysics 472, 126-138).
ALDH1A1 and ALDH1A2 activity was determined as previously reported (Beedle M T, Stevison F, Zhong G, Topping T, Hogarth C, Isoherranen N, Griswold M D. Sources of All-Trans Retinal Oxidation Independent of the Aldehyde Dehydrogenase 1A Isozymes Exist in the Postnatal Testis. Biol Reprod. 2018 Sep. 21. doi: 10.1093/biolre/ioy200). Briefly, purified enzymes were incubated in a buffer containing 10 mM HEPES buffer (pH 8.0), 150 mM potassium chloride and 2 mM EDTA with 2 mM NAD. Retinoic acid production was determined using HPLC as previously reported (Amory J K, Muller C H, Shimshoni A J, Isoherranen N, Paik J, Moreb J S, Amory D W, Evanoff R, Goldstein A S, Griswold M D. Suppression of spermatogenesis by bisdichloroacetyldiamines is mediated by inhibition of testicular retinoic acid biosynthesis. Journal of Andrology 2011; 32(1):111-119). Inhibitors were diluted in DMSO and added to the reactions. […] For initial screening of inhibitors for ALDH1A2, 1 μg ALDH1A2, 5 μM all-trans-retinal and 5 μM inhibitors were incubated for 15 min at 37° C. […] For this purpose, 0.5 μg ALDH1A2 and […] were incubated for 5 minutes at 37° C. with varying concentrations of inhibitors. To determine specificity toward ALDH1A2, the IC50 for […]

In a further experiment the target is T2, ALDH2 (Homo sapiens, UniProt P05091).
T2 construct: histidine-tag (N); made in house; host or cells: bacterial expression (pETite vector, IPTG induction)
T2 sequence (P05091 18-517): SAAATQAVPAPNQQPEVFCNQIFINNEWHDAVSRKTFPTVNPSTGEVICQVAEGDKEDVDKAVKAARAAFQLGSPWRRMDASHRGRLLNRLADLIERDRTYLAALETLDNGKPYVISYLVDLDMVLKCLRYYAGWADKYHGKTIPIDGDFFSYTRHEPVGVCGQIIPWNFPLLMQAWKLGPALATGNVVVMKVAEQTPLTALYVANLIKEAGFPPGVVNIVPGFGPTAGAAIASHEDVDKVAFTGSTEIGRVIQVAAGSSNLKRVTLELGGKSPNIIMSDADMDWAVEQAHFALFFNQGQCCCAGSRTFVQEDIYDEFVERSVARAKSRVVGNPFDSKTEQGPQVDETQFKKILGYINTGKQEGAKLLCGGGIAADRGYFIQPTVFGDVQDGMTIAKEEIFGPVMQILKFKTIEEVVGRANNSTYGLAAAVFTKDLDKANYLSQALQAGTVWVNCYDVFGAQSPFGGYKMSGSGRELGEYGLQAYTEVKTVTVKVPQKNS
Kind of experiment: Purified ALDH2 assay with propanal, NADH fluorescence. The conditions noted are these: purified enzyme. The class given is biochemical.
From the text: as §1, with “126-138). […]” for “126-138).”
For this, 2 μg purified ALDH2, 20 μM propanal and varying concentrations of inhibitors were incubated at room temperature. Enzyme activity was determined by measuring fluorescence of NADH (Ex, 350 nm/Em, 460 nm) using a Victor3 plate reader (PerkinElmer), and initial velocity was calculated from two consecutive readings over 1 minute.

As a reminder, the IC50 is the concentration that gives 50% inhibition. Low readings indicate higher potency, high ones lower potency.

Turning to `COC(=O)c1ccc(-c2nn(-c3ccccc3)cc2C=O)cc1` [Cmpd 33], the IC50 against ALDH1A2 came out at 0.198 µM; at ALDH2, 0.077 µM.
The corresponding values for `COc1cccc(NC(=O)c2cn(-c3ccccc3)nc2-c2ccc([N+](=O)[O-])cc2)c1` [Compound 103, N-(3-Methoxyphenyl)-3-(4-nitrophenyl)-1-phenyl-1H-pyrazole-4-carboxamide] are 0.62 µM and 313 µM.
The corresponding values for `O=C(Nc1cccc(F)c1)c1cn(-c2ccccc2)nc1-c1ccc([N+](=O)[O-])cc1` [Compound 106, N-(3-fluorophenyl)-3-(4-nitrophenyl)-1-phenyl-1H-pyrazole-4-carboxamide] are 0.07 µM and 146 µM.
For `O=C(Nc1ccccc1C(F)(F)F)c1cn(-c2ccccc2)nc1-c1ccc([N+](=O)[O-])cc1` [Compound 150, 3-(4-Nitrophenyl)-1-phenyl-N-[2-(trifluoromethyl)phenyl]-1H-pyrazole-4-carboxamide], the half-inhibitory concentration (IC50) worked out at 0.17 µM on ALDH1A2 and 13 µM against ALDH2.
The corresponding values for `O=C(Nc1cccc(C(F)(F)F)c1)c1cn(-c2ccccc2)nc1-c1ccc([N+](=O)[O-])cc1` [Compound 151, 3-(4-Nitrophenyl)-1-phenyl-N-[3-(trifluoromethyl)phenyl]-1H-pyrazole-4-carboxamide] are 0.822 µM and 24.6 µM.
As for `O=C(Nc1ccccc1O)c1cn(-c2ccccc2)nc1-c1ccc([N+](=O)[O-])cc1` [Compound 165, N-(2-Hydroxyphenyl)-3-(4-nitrophenyl)-1-phenyl-1H-pyrazole-4-carboxamide], the IC50 at ALDH1A2 was 0.211 µM; at ALDH2, 23.3 µM.
In the same order, the values of `O=C(Nc1cccc(O)c1)c1cn(-c2ccccc2)nc1-c1ccc([N+](=O)[O-])cc1` [Compound 166, N-(3-Hydroxyphenyl)-3-(4-nitrophenyl)-1-phenyl-1H-pyrazole-4-carboxamide] are 0.779 µM and 95.2 µM.
As for `O=C(Nc1ccc(O)cc1)c1cn(-c2ccccc2)nc1-c1ccc([N+](=O)[O-])cc1` [Compound 167, N-(4-Hydroxyphenyl)-3-(4-nitrophenyl)-1-phenyl-1H-pyrazole-4-carboxamide], the IC50 at ALDH1A2 was determined as 0.397 µM; on ALDH2, 16.9 µM.
Regarding `Nc1cccc(NC(=O)c2cn(-c3ccccc3)nc2-c2ccc([N+](=O)[O-])cc2)c1` [Compound 173, N-(3-Aminophenyl)-3-(4-nitrophenyl)-1-phenyl-1H-pyrazole-4-carboxamide], the figures for the IC50 against ALDH1A2 and on ALDH2 were 0.383 µM and 73.7 µM, respectively.
In the same order, the values of `CS(=O)(=O)c1ccc(-c2nn(-c3ccccc3)cc2C(=O)Nc2ccc(F)c(F)c2)cc1` [Compound 207, 3-(4-(Methylsulfonyl)phenyl)-N-(3,4-difluorophenyl)-1-phenyl-1H-pyrazole-4-carboxamide] are 0.01 µM and 10.3 µM.
In the same order, the values of `CS(=O)(=O)c1ccc(-c2nn(-c3ccccc3)cc2C(=O)Nc2cccc(C(F)(F)F)c2)cc1` [Compound 208, 3-(4-(Methylsulfonyl)phenyl)-N-(3-trifluoromethylphenyl)-1-phenyl-1H-pyrazole-4-carboxamide] are 0.01 µM and 145 µM.
Turning to `CC(=O)Oc1ccccc1NC(=O)c1cn(-c2ccccc2)nc1-c1ccc(S(C)(=O)=O)cc1` [Compound 210, N-(2-Acetoxyphenyl)-3-[4-(methylsulfonyl)phenyl]-1-phenyl-1H-pyrazole-4-carboxamide], the figures for the IC50 at ALDH1A2 and at ALDH2 were 0.032 µM and 112 µM, respectively.
The corresponding values for `COC(=O)c1cn(-c2ccccc2)nc1-c1ccc([N+](=O)[O-])cc1` [Compound 229, Methyl 3-(4-nitrophenyl)-1-phenyl-1H-pyrazole-4-carboxylate] are 0.217 µM and 15.2 µM.
For the molecule `CS(=O)(=O)c1ccc(-c2nn(-c3ccccc3F)cc2C(=O)Nc2ccccc2O)cc1` [Compound 238, N-(2-Hydroxphenyl)-3-[4-(methylsulfonyl)phenyl]-1-(2-fluoropheny)-1H-pyrazole-4-carboxamide], the IC50 at ALDH2 is 40.9 µM.
Consider `CS(=O)(=O)c1ccc(-c2nn(-c3cccc(Cl)c3)cc2C(=O)Nc2cccc(F)c2)cc1` [Compound 239, N-(3-Fluorophenyl)-3-[4-(methylsulfonyl)phenyl]-1-(3-chloropheny)-1H-pyrazole-4-carboxamide], for which the values for the IC50 on ALDH1A2 and on ALDH2 were 0.271 µM and 9.6 µM, respectively.
Regarding `CS(=O)(=O)c1ccc(-c2nn(-c3cccc(F)c3)cc2C(=O)Nc2ccccc2O)cc1` [Compound 243, N-(2-Hydroxyphenyl)-3-[4-(methylsulfonyl)phenyl]-1-(3-fluorophenyl)-1H-pyrazole-4-carboxamide], the IC50 against ALDH1A2 turned out to be 0.076 µM; on ALDH2, 62 µM.
In the same order, the values of `CS(=O)(=O)c1ccc(-c2nn(-c3cccc(F)c3)cc2C(=O)Nc2ccc(OC(F)(F)F)cc2)cc1` [Compound 246, N-(4-Trifluoromethoxyphenyl)-3-[4-(methylsulfonyl)phenyl]-1-(3-fluorophenyl)-1H-pyrazole-4-carboxamide] are 0.119 µM and 61.2 µM.
`CS(=O)(=O)c1ccc(-c2nn(-c3cccc(F)c3)cc2C(=O)Nc2ccc(C#N)cc2)cc1` [Compound 249, N-(4-Cyanophenyl)-3-[4-(methylsulfonyl)phenyl]-1-(3-fluorophenyl)-1H-pyrazole-4-carboxamide]: the IC50 at ALDH1A2 is 0.038 µM; against ALDH2, 35.9 µM.
